# Reference: PMC10364322, “Evaluation of chronic drug-induced electrophysiological and cytotoxic effects using human-induced pluripotent stem cell-derived cardiomyocytes (hiPSC-CMs)” (Frontiers in Pharmacology, 2023)
# Like-named read-outs stand apart in the source and are kept apart here.
# Test system: hiPSC-CMs (iCell-Cardiomyocytes^2)
# Summary of the method: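 Spontaneous field potentials and impedance recorded by MEA at 37°C, 5% CO2 in hiPSC-CM monolayers (50 K/well, fibronectin-coated), 5-min baseline before compound; final DMSO 0.1%. Values are percent change from baseline, mean ± SD, compared with DMSO by Wilcoxon-Mann Whitney, interpreted against DMSO tolerance intervals.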
smiles,measurement,setting,value
COc1cccc2c1C(=O)c1c(O)c3c(c(O)c1C2=O)C[C@@](O)(C(=O)CO)C[C@@H]3O[C@H]1C[C@H](N)[C@H](O)[C@H](C)O1 [Doxorubicin],"BR (beating rate), % change from baseline","0.1 µM, 2h",7±3%
same,"Beating below threshold, number of observations/total well numbers","0.1 µM, 2h",0/5
same,"Cessation of beating, number of observations/total well numbers","0.1 µM, 2h",0/5
same,"EAD, number of observations/total well numbers","0.1 µM, 2h",0/5
same,"FPD (field-potential duration), % change from baseline","0.1 µM, 2h",-0.9±3.5%
same,"FPDc (field-potential duration corrected by beat-rate), % change from baseline","0.1 µM, 2h",1.2±2.7%
same,"Flat T-wave-like, number of observations/total well numbers","0.1 µM, 2h",0/5
same,"BR (beating rate), % change from baseline","0.1 µM, 24h",41±12 %
same,"Beating below threshold, number of observations/total well numbers","0.1 µM, 24h",0/5
same,"Cessation of beating, number of observations/total well numbers","0.1 µM, 24h",0/5
same,"EAD, number of observations/total well numbers","0.1 µM, 24h",0/5
same,"FPD (field-potential duration), % change from baseline","0.1 µM, 24h",-18.2±8.6 %
same,"FPDc (field-potential duration corrected by beat-rate), % change from baseline","0.1 µM, 24h",-8.8±6.9 %
same,"Flat T-wave-like, number of observations/total well numbers","0.1 µM, 24h",0/5
same,"BR (beating rate), % change from baseline","0.1 µM, 48h",26±8 %
same,"Beating below threshold, number of observations/total well numbers","0.1 µM, 48h",0/5
same,"Cessation of beating, number of observations/total well numbers","0.1 µM, 48h",0/5
same,"EAD, number of observations/total well numbers","0.1 µM, 48h",0/5
same,"FPD (field-potential duration), % change from baseline","0.1 µM, 48h",-24.4±9.8 %
same,"FPDc (field-potential duration corrected by beat-rate), % change from baseline","0.1 µM, 48h",-18.8±8.7 %
same,"Flat T-wave-like, number of observations/total well numbers","0.1 µM, 48h",0/5
same,"BR (beating rate), % change from baseline","0.1 µM, 72h",22±6 %
same,"Beating below threshold, number of observations/total well numbers","0.1 µM, 72h",0/5
same,"Cessation of beating, number of observations/total well numbers","0.1 µM, 72h",0/5
same,"EAD, number of observations/total well numbers","0.1 µM, 72h",0/5
same,"FPD (field-potential duration), % change from baseline","0.1 µM, 72h",-25±8.7 %
same,"FPDc (field-potential duration corrected by beat-rate), % change from baseline","0.1 µM, 72h",-20.4±8.9 %
same,"Flat T-wave-like, number of observations/total well numbers","0.1 µM, 72h",1/5
same,"BR (beating rate), % change from baseline","0.1 µM, 96h",-7±13%
same,"Beating below threshold, number of observations/total well numbers","0.1 µM, 96h",0/5
same,"Cessation of beating, number of observations/total well numbers","0.1 µM, 96h",0/5
same,"EAD, number of observations/total well numbers","0.1 µM, 96h",0/5
same,"FPD (field-potential duration), % change from baseline","0.1 µM, 96h",-11.7±0.4 %
same,"FPDc (field-potential duration corrected by beat-rate), % change from baseline","0.1 µM, 96h",-16.2±0.1 %
same,"Flat T-wave-like, number of observations/total well numbers","0.1 µM, 96h",3/5
same,time point from which cessation of beating occurred in all wells,0.3 µM,48 h
same,"BR (beating rate), % change from baseline","0.3 µM, 2h",2±2%
same,"Beating below threshold, number of observations/total well numbers","0.3 µM, 2h",0/5
same,"Cessation of beating, number of observations/total well numbers","0.3 µM, 2h",0/5
same,"EAD, number of observations/total well numbers","0.3 µM, 2h",0/5
same,"FPD (field-potential duration), % change from baseline","0.3 µM, 2h",2.2±0.8%
same,"FPDc (field-potential duration corrected by beat-rate), % change from baseline","0.3 µM, 2h",2.8±1.1%
same,"Flat T-wave-like, number of observations/total well numbers","0.3 µM, 2h",0/5
same,"BR (beating rate), % change from baseline","0.3 µM, 24h",24±8 %
same,"Beating below threshold, number of observations/total well numbers","0.3 µM, 24h",0/5
same,"Cessation of beating, number of observations/total well numbers","0.3 µM, 24h",0/5
same,"EAD, number of observations/total well numbers","0.3 µM, 24h",0/5
same,"FPD (field-potential duration), % change from baseline","0.3 µM, 24h",-21±2.9 %
same,"FPDc (field-potential duration corrected by beat-rate), % change from baseline","0.3 µM, 24h",-14.6±1.7 %
same,"Flat T-wave-like, number of observations/total well numbers","0.3 µM, 24h",2/5
same,"BR (beating rate), % change from baseline","0.3 µM, 48h",40±8 %
same,"Beating below threshold, number of observations/total well numbers","0.3 µM, 48h",0/5
same,"Cessation of beating, number of observations/total well numbers","0.3 µM, 48h",2/5
same,"EAD, number of observations/total well numbers","0.3 µM, 48h",0/5
same,"Flat T-wave-like, number of observations/total well numbers","0.3 µM, 48h",3/5
same,"BR (beating rate), % change from baseline","0.3 µM, 72h",39±0 %
same,"Beating below threshold, number of observations/total well numbers","0.3 µM, 72h",0/5
same,"Cessation of beating, number of observations/total well numbers","0.3 µM, 72h",4/5
same,"EAD, number of observations/total well numbers","0.3 µM, 72h",0/5
same,"Flat T-wave-like, number of observations/total well numbers","0.3 µM, 72h",1/5
same,"Beating below threshold, number of observations/total well numbers","0.3 µM, 96h",0/5
same,"Cessation of beating, number of observations/total well numbers","0.3 µM, 96h",5/5
same,"EAD, number of observations/total well numbers","0.3 µM, 96h",0/5
same,"Flat T-wave-like, number of observations/total well numbers","0.3 µM, 96h",0/5
same,time point from which cessation of beating occurred in all wells,1 µM,48 h
same,"BR (beating rate), % change from baseline","1 µM, 2h",3±2%
same,"Beating below threshold, number of observations/total well numbers","1 µM, 2h",0/5
same,"Cessation of beating, number of observations/total well numbers","1 µM, 2h",0/5
same,"EAD, number of observations/total well numbers","1 µM, 2h",0/5
same,"FPD (field-potential duration), % change from baseline","1 µM, 2h",2.8±3.4%
same,"FPDc (field-potential duration corrected by beat-rate), % change from baseline","1 µM, 2h",4.2±3%
same,"Flat T-wave-like, number of observations/total well numbers","1 µM, 2h",0/5
same,"BR (beating rate), % change from baseline","1 µM, 24h",68±21 %
same,"Beating below threshold, number of observations/total well numbers","1 µM, 24h",0/5
same,"Cessation of beating, number of observations/total well numbers","1 µM, 24h",0/5
same,"EAD, number of observations/total well numbers","1 µM, 24h",0/5
same,"Flat T-wave-like, number of observations/total well numbers","1 µM, 24h",4/5
same,"Beating below threshold, number of observations/total well numbers","1 µM, 48h",0/5
same,"Cessation of beating, number of observations/total well numbers","1 µM, 48h",5/5
same,"EAD, number of observations/total well numbers","1 µM, 48h",0/5
same,"Flat T-wave-like, number of observations/total well numbers","1 µM, 48h",0/5
same,"Beating below threshold, number of observations/total well numbers","1 µM, 72h",0/5
same,"Cessation of beating, number of observations/total well numbers","1 µM, 72h",5/5
same,"EAD, number of observations/total well numbers","1 µM, 72h",0/5
same,"Flat T-wave-like, number of observations/total well numbers","1 µM, 72h",0/5
same,"Beating below threshold, number of observations/total well numbers","1 µM, 96h",0/5
same,"Cessation of beating, number of observations/total well numbers","1 µM, 96h",5/5
same,"EAD, number of observations/total well numbers","1 µM, 96h",0/5
same,"Flat T-wave-like, number of observations/total well numbers","1 µM, 96h",0/5
same,time point from which cessation of beating occurred in all wells,3 µM,24 h
same,"Beating below threshold, number of observations/total well numbers","3 µM, 72h",0/5
same,"Cessation of beating, number of observations/total well numbers","3 µM, 72h",5/5
same,"EAD, number of observations/total well numbers","3 µM, 72h",0/5
same,"Flat T-wave-like, number of observations/total well numbers","3 µM, 72h",0/5
same,"Beating below threshold, number of observations/total well numbers","3 µM, 96h",0/5
same,"Cessation of beating, number of observations/total well numbers","3 µM, 96h",5/5
same,"EAD, number of observations/total well numbers","3 µM, 96h",0/5
same,"Flat T-wave-like, number of observations/total well numbers","3 µM, 96h",0/5
same,"BR (beating rate), % change from baseline","3 µM, 2h",1±2%
same,"Beating below threshold, number of observations/total well numbers","3 µM, 2h",0/5
same,"Cessation of beating, number of observations/total well numbers","3 µM, 2h",0/5
same,"EAD, number of observations/total well numbers","3 µM, 2h",0/5
same,"FPD (field-potential duration), % change from baseline","3 µM, 2h",3.9±2.4%
same,"FPDc (field-potential duration corrected by beat-rate), % change from baseline","3 µM, 2h",4.3±2.4%
same,"Flat T-wave-like, number of observations/total well numbers","3 µM, 2h",0/5
same,"BR (beating rate), % change from baseline","3 µM, 24h",41±36 %
same,"Beating below threshold, number of observations/total well numbers","3 µM, 24h",0/5
same,"Cessation of beating, number of observations/total well numbers","3 µM, 24h",1/5
same,"EAD, number of observations/total well numbers","3 µM, 24h",0/5
same,"FPD (field-potential duration), % change from baseline","3 µM, 24h",-15.8±3.8 %
same,"FPDc (field-potential duration corrected by beat-rate), % change from baseline","3 µM, 24h",-2.9±4.7 %
same,"Flat T-wave-like, number of observations/total well numbers","3 µM, 24h",2/5
same,"Beating below threshold, number of observations/total well numbers","3 µM, 48h",0/5
same,"Cessation of beating, number of observations/total well numbers","3 µM, 48h",5/5
same,"EAD, number of observations/total well numbers","3 µM, 48h",0/5
same,"Flat T-wave-like, number of observations/total well numbers","3 µM, 48h",0/5
